Test results published in ChEMBL document CHEMBL5365461, “Degradation of Cyclin-Dependent Kinase 9/Cyclin T1 by Optimized Microtubule-Associated Protein 1 Light Chain 3 Beta-Recruiting Coumarin Analogs” (J Med Chem, 2023).
Calls of active or inactive are those of the source. The calls are words filed in the database; no cut-off is given here.

Columns and labels:
[1] = biological target: Cyclin-dependent kinase 9 (Homo sapiens) (UniProt P50750); test: (§1) Inhibition of GST-fused human full-length CDK9 (1 to 372(end) residues)/N-terminal GST-fused His-tagged human full-length CyclinT1 (1 to 726(end) residues) expressed in baculovirus expression system at 10 nM using CDK7/9 tide as substrate incubated for 120 mins in presence of ATP by ADP-Glo Kinase assay relative to control
Cyclin-dependent kinase 9 (Homo sapiens), sequence (P50750 whole entry, the tested form may be a part): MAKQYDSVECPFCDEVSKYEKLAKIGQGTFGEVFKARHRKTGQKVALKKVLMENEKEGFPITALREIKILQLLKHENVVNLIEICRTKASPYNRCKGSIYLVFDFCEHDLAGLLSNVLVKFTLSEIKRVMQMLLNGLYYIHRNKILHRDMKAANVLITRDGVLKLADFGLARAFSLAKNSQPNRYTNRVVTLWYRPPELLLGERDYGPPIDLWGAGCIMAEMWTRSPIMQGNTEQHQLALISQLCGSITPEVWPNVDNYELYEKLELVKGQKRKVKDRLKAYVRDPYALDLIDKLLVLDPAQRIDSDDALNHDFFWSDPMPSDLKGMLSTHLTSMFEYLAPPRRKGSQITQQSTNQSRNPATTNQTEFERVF

[2] = biological target: Cyclin-dependent kinase 9 (Homo sapiens) (UniProt P50750); test: as §1, with “100” for “10”
[3] = system: U2932; test: Cytotoxicity against human U2932 cells assessed as inhibition of cell growth measured after 72 hrs by CCK-8 assay; format: functional, cell-based; conditions: U2932, 72 h
[4] = biological target: CDK9/cyclin T1 (Homo sapiens) (UniProt O60563+P50750); test: Induction of CDK9/CyclinT1 degradation in human U2932 cells at 100 nM measured after 24 hrs by immunoblotting analysis; format: cell-based
[5] = system: U2932; test: Induction of apoptosis in human U2932 cells assessed as viable cells at 1000 nM incubated for 24 hrs by AnnexinV-FITC/PI staining based flow cytometry analysis (reference value: 86.9%); format: functional; conditions: read-out: Activity
[6] = system: U2932; test: Induction of apoptosis in human U2932 cells assessed as early apoptotic cells at 1000 nM incubated for 24 hrs by AnnexinV-FITC/PI staining based flow cytometry analysis (reference value: 6.20%); format: functional
[7] = system: U2932; test: Induction of apoptosis in human U2932 cells assessed as late apoptotic cells at 1000 nM incubated for 24 hrs by AnnexinV-FITC/PI staining based flow cytometry analysis (reference value: 5.95%); format: functional
[8] = system: U2932; test: Induction of apoptosis in human U2932 cells assessed as necrotic cells at 1000 nM incubated for 24 hrs by AnnexinV-FITC/PI staining based flow cytometry analysis (reference value: 0.92%); format: functional

| SMILES | inhibition [1] | inhibition [2] | Activity [4] | IC50 [3] | viability at 1 µM [5] | Activity [6] | Activity [7] | Activity [8] |
| --- | --- | --- | --- | --- | --- | --- | --- | --- |
| Cc1cc(=O)oc2cc(O)cc(OCCOCCN3CCC(C(=O)Nc4ncc(SCc5ncc(C(C)(C)C)o5)s4)CC3)c12 | 5% | 63% |  | 180 nM |  |  |  |  |
| CC(C)(C)c1cnc(CSc2cnc(NC(=O)C3CCN(CCCOc4cc(O)c5ccc(=O)oc5c4)CC3)s2)o1 | 45% | 78% | Active | 157 nM |  |  |  |  |
| Cc1cc(=O)oc2cc(OCCOCCN3CCC(C(=O)Nc4ncc(SCc5ncc(C(C)(C)C)o5)s4)CC3)cc(O)c12 | 28% | 71% |  | 145 nM |  |  |  |  |
| CC(C)(C)c1cnc(CSc2cnc(NC(=O)C3CCN(CCCOc4ccc5c(-c6ccccc6)cc(=O)oc5c4)CC3)s2)o1 | 6% | 69% |  | 320 nM |  |  |  |  |
| CC(C)(C)c1cnc(CSc2cnc(NC(=O)C3CCN(CCCCCOc4cc(O)cc5oc(=O)ccc45)CC3)s2)o1 | 24% | 83% |  | 109 nM |  |  |  |  |
| CC(C)(C)c1cnc(CSc2cnc(NC(=O)C3CCN(CCCOc4cccc5oc(=O)cc(-c6ccccc6)c45)CC3)s2)o1 | -8% | 36% |  | 534 nM |  |  |  |  |
| Cc1cc(=O)oc2cc(OCCN3CCC(C(=O)Nc4ncc(SCc5ncc(C(C)(C)C)o5)s4)CC3)cc(O)c12 | 37% | 69% |  | 155 nM |  |  |  |  |
| CC(C)(C)c1cnc(CSc2cnc(NC(=O)C3CCN(CC(=O)NCCOCCOCCOCCNc4cccc5c4C(=O)N(C4CCC(=O)NC4=O)C5=O)CC3)s2)o1 (centres undefined) | 4% | 39% | Active | 306 nM | 67.2% | 8.93% | 22.3% | 1.55% |
| Cc1cc(=O)oc2cc(O)cc(OCCCCN3CCC(C(=O)Nc4ncc(SCc5ncc(C(C)(C)C)o5)s4)CC3)c12 | 9% | 79% |  | 142 nM |  |  |  |  |
| COc1ccc(-c2cc(=O)oc3cc(OCCCN4CCC(C(=O)Nc5ncc(SCc6ncc(C(C)(C)C)o6)s5)CC4)cc(O)c23)cc1 | 33% | 83% | Active | 104 nM |  |  |  |  |
| Cc1cc(=O)oc2cc(O)cc(OCCN3CCC(C(=O)Nc4ncc(SCc5ncc(C(C)(C)C)o5)s4)CC3)c12 | 23% | 73% |  | 424 nM |  |  |  |  |
| Cc1cc(=O)oc2cc(OCCCCN3CCC(C(=O)Nc4ncc(SCc5ncc(C(C)(C)C)o5)s4)CC3)cc(O)c12 | 26% | 73% |  | 133 nM |  |  |  |  |
| Cc1cc(=O)oc2cc(OCCCCCN3CCC(C(=O)Nc4ncc(SCc5ncc(C(C)(C)C)o5)s4)CC3)cc(O)c12 | 2% | 57% |  | 98 nM |  |  |  |  |

More lines, main results first:

| inhibition [1] | inhibition [2] | Activity [4] | SMILES | IC50 [3] | viability at 1 µM [5] | Activity [6] | Activity [7] | Activity [8] |
| --- | --- | --- | --- | --- | --- | --- | --- | --- |
| -3% | 52% | Active | CC(C)(C)c1cnc(CSc2cnc(NC(=O)C3CCN(CCCOc4cc(O)cc5oc(=O)ccc45)CC3)s2)o1 | 125 nM |  |  |  |  |
| 15% | 69% | Active | CC(C)(C)c1cnc(CSc2cnc(NC(=O)C3CCN(CCCOc4cc(O)c5c(-c6ccncc6)cc(=O)oc5c4)CC3)s2)o1 | 192 nM |  |  |  |  |
|  | 55% |  | CC(C)(C)c1cnc(CSc2cnc(NC(=O)C3CCN(CCCOc4cc(O)cc5oc(=O)cc(-c6ccncc6)c45)CC3)s2)o1 | 484 nM |  |  |  |  |
|  | 68% |  | CC(C)(C)c1cnc(CSc2cnc(NC(=O)C3CCN(CCCOc4cc(O)cc5oc(=O)cc(-c6ccc(F)cc6)c45)CC3)s2)o1 | 346 nM |  |  |  |  |
| -5% | 61% |  | COc1ccc(-c2cc(=O)oc3cc(O)cc(OCCCN4CCC(C(=O)Nc5ncc(SCc6ncc(C(C)(C)C)o6)s5)CC4)c23)cc1 | 604 nM |  |  |  |  |
| -8% | 51% |  | CC(C)(C)c1cnc(CSc2cnc(NC(=O)C3CCN(CCCOc4cc(O)cc5oc(=O)cc(-c6ccccc6)c45)CC3)s2)o1 | 624 nM |  |  |  |  |
|  | 55% | Active | Cc1cc(=O)oc2cc(O)cc(OCCCN3CCC(C(=O)Nc4ncc(SCc5ncc(C(C)(C)C)o5)s4)CC3)c12 | 157 nM |  |  |  |  |
|  | 80% | Active | CC(C)(C)c1cnc(CSc2cnc(NC(=O)C3CCN(CCCOc4cc(O)c5c(-c6ccc(F)cc6)cc(=O)oc5c4)CC3)s2)o1 | 124 nM |  |  |  |  |
| -4% | 86% | Active | CC(C)(C)c1cnc(CSc2cnc(NC(=O)C3CCN(CCCOc4cc(O)c5c(-c6ccccc6)cc(=O)oc5c4)CC3)s2)o1 | 120 nM |  |  |  |  |
